The source of these data is US5830909A (American Cyanamid Company, priority 1996, dated 1998).

Assay [1] is classed as in vivo, rat. The note with it: 15 mg/kg once a day by gavage, two weeks; for Avg. Daily Food Intake / Avg. Weight Gain / Epididymal Fat Weight / Final Body Weight / Retroperitoneal Fat Weight: n = 6. How it is done: (§1) Body weight and food intake are monitored daily. At the end of two weeks, the rats are sacrificed and tissues are weighed. Adipocyte membranes are prepared by collagenase digestion, homogenization and centrfugation. […] Of the organs sampled, the combined largest relative and quantitative change in weight was in the adipose tissue.

The next assay concerns epididymal adipocytes. Briefly: Epididymal adipocyte cell volume after two weeks oral treatment. The assay is classed as in vivo, rat. The settings on record: 4 rats/group, oral once daily for 2 weeks. How it is done:
as §1

The test system of another assay is adipocyte AII receptor. Briefly: Epididymal adipocyte AII receptor binding (Bmax) after two weeks oral treatment. The assay is classed as in vivo, rat. The note with it: 4 rats/group, oral once daily for 2 weeks. The method, then:
Body weight and food intake are monitored daily. At the end of two weeks, the rats are sacrificed and tissues are weighed. Adipocyte membranes are prepared by collagenase digestion, homogenization and centrfugation.
Binding is initiated by suspending the adipocyte membranes in 0.25% BSA buffer (bovine serum albumin, 50 mM Tris HCl, 5 mM MgCl2,pH 7.4) to a final concentration of 5 ug protein/10 ul buffer. […] The filters are placed in tubes, and radioactivity measured in a gamma scintillation counter programmed to correct for the half-life of the isotope. Using this experimental protocol, both the affinity (KD) and number of binding sites (Bmax) for angiotensin II on the adipocyte membrane can be calculated.

Assay [2] deals with T1, AII receptor (Rattus norvegicus, UniProt P25095).
T1 construct: adipose tissue from the epididymal and retroperitoneal depots is quickly excised; from tissue; host or cells: membranes of collagenase-isolated adipocytes from epididymal and retroperitoneal fat of male Sprague-Dawley rats
T1 sequence (P25095 1-359): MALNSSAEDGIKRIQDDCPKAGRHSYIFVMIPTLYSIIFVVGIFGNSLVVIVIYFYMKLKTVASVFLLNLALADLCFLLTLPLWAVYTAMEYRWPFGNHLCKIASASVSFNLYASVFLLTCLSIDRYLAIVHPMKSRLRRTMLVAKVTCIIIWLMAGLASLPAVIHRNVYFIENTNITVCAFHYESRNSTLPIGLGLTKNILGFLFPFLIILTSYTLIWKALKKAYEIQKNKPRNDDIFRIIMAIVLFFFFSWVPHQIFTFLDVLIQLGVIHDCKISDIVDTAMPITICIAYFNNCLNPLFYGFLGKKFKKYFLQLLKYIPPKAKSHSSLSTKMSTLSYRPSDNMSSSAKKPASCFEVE
Put plainly: Displacement of 125I[Sar,Ile]AII binding in rat epididymal fat cell membranes. The text has this: The experimental design involves determining the binding characteristics of adipocyte membranes harvested from two different anatomic sites at three different ages. Male Sprague-Dawley rats (Charles River Laboratories, Wilmington, Mass.) are used at 40, 70 and 100 days of age. Rats are killed by carbon dioxide inhalation on the morning of the experiment, and adipose tissue from the epididymal and retroperitoneal depots is quickly excised and placed in cold saline. The spermatic artery and vein are removed from the epididymal fat, and brown fat deposits are dissected away from the retroperitoneal depot. The adipose tissue is weighed, minced into small pieces, and approximately 10 g each transferred to a flask containing 25 ml of Krebs-Ringer-bicarbonate buffer (KRB), 6 mM glucose and 50 mg of collagenase, pH 7.4. […] Intact adipocytes dissociated from the tissue pass freely into waiting tubes, while the undigested tissue is trapped on the screen. The tubes containing the adipocytes are washed an additional 4× with 20 ml each of cold Tris buffer (10 mM Tris HCl, pH 8.0) by first allowing the adipocytes to separate from the digestion medium by flotation, removing the infranatant through polyethylene tubing attached to a syringe, resuspending the cells in the Tris buffer, and repeating this procedure. Adipocyte membranes used for binding studies are prepared as follows. […] Following centrifugation, the fat cake and supernatant are carefully removed, and the pellet resuspended in 1 ml of Tris buffer. Protein content of the high speed pellet is determined, the resuspended protein is either assayed immediately or stored at -75° before binding assays are performed. […] The assay is initiated by the addition of the membrane protein, followed by incubation at 22° C. for 30 minutes in a slowly shaking water bath. Separation of bound from free radioactivity is achieved using any appropriate filtration apparatus. We use either a Millipore or Brandel model harvesting apparatus containing a Durapore or Whatman GF/B filter, followed by 6 additional rinses with 5 ml each of cold saline. The filters are placed in tubes, and radioactivity measured in a gamma scintillation counter programmed to correct for the half-life of the isotope. Using this experimental protocol, both the affinity (KD) and number of binding sites (Bmax) for angiotensin II on the adipocyte membrane can be calculated. The relative affinities of different anatomically distinct adipocyte membranes for a variety of peptide and nonpeptide antagonists can also be determined. […] Concentration ranges can be altered dependent upon the affinity of the particular antagonist for the fat cell membrane receptor.
In general terms: In a radioligand displacement assay an active substance lowers the binding of a labelled ligand.

The target of assay [3] is T1, AII receptor. Put plainly: Displacement of 125I[Sar,Ile]AII binding in rat retroperitoneal fat cell membranes. The text has this:
The experimental design involves determining the binding characteristics of adipocyte membranes harvested from two different anatomic sites at three different ages. Male Sprague-Dawley rats (Charles River Laboratories, Wilmington, Mass.) are used at 40, 70 and 100 days of age. Rats are killed by carbon dioxide inhalation on the morning of the experiment, and adipose tissue from the epididymal and retroperitoneal depots is quickly excised and placed in cold saline. The spermatic artery and vein are removed from the epididymal fat, and brown fat deposits are dissected away from the retroperitoneal depot. […] Protein content of the high speed pellet is determined, the resuspended protein is either assayed immediately or stored at -75° before binding assays are performed. […] Separation of bound from free radioactivity is achieved using any appropriate filtration apparatus. […] The filters are placed in tubes, and radioactivity measured in a gamma scintillation counter programmed to correct for the half-life of the isotope. Using this experimental protocol, both the affinity (KD) and number of binding sites (Bmax) for angiotensin II on the adipocyte membrane can be calculated. The relative affinities of different anatomically distinct adipocyte membranes for a variety of peptide and nonpeptide antagonists can also be determined. […]

Setting [4] is: Epididymal IC50 for displacement of 125I[Sar,Ile]AII binding, rat epididymal fat cell membranes (Table 8).

A word on the IC50: it is the concentration that inhibits the measured activity by half.

Each structure is given as a SMILES string. Counter-ions that a name gives are not always drawn.

`CCCCc1nc2ccc([C@@]3(C)C[C@@H]4CCCN4O3)cc2c(=O)n1Cc1ccc(-c2ccccc2-c2nnn[nH]2)cc1` (racemic) [cis-(+/-)-2-butyl-6-(hexahydro-2-methylpyrrolo[1,2-b]isoxazol-2-yl)-3-[[2'-(1H-tetrazol-5-yl)[1,1-biphenyl]-4-yl]methyl]-4(3H)-quinazolinone sodium salt]: in assay [1], the “Avg. Daily Food Intake, % Change From Control” value is -7%; the “Avg. Weight Gain, % Change From Control” value is on record as -55%; the “Epididymal Fat Weight, % Change From Control” value was -17%; the “Final Body Weight, % Change From Control” value is -7%. Also, in assay [1], the “Retroperitoneal Fat Weight, % Change From Control” value is listed as -11%; the “Avg. Daily Food Intake” value came to 30.4 g; the “Avg. Weight Gain” value stood at 25 g; the “Epididymal Fat Weight” value amounted to 4.33 g. Moreover, in assay [1], the “Final Body Weight” value was 424 g and the “Retroperitoneal Fat Weight” value is recorded as 4.35 g. Also, in the assay on epididymal adipocytes, the “Adipocyte Cell Volume” value worked out at 187 p1. In the assay with adipocyte AII receptor, the “Bmax, epididymal adipocyte AII receptor binding” value amounted to 31.8 fmole/mg protein. Further, the 50% inhibitory concentration (IC50) at AII receptor [2] (setting [4]) turned out to be 0.0146 µM.

With `CCc1nc2c(C)cc(C)nc2n1Cc1ccc(-c2ccccc2-c2nnn[nH]2)cc1` [2-ethyl-5,7-dimethyl-3-[[2'-(1H-tetrazol-5-yl)[1,1-biphenyl]-4-yl]methyl]-3H-imidazo[4,5-b]pyridine, reference compound], the IC50 on AII receptor [2] (setting [4]) was found to be 0.00244 µM.

In the case of `CCCCc1nc(Cl)c(CO)n1Cc1ccc(-c2ccccc2-c2nnn[nH]2)cc1` [2-n-butyl-4-chloro-5-hydroxymethyl-1-[(2'-(1H-tetrazol-5-yl)biphenyl-4-yl)methyl]imidazole, reference compound], in assay [1], the “Avg. Daily Food Intake, % Change From Control” value is -8%; the “Avg. Weight Gain, % Change From Control” value was -38%; the “Epididymal Fat Weight, % Change From Control” value is listed as -21%; the “Final Body Weight, % Change From Control” value is listed as -5%. In assay [1], the “Retroperitoneal Fat Weight, % Change From Control” value was -16%; the “Avg. Daily Food Intake” value was 30.1 g; the “Avg. Weight Gain” value is 35 g; the “Epididymal Fat Weight” value is reported as 4.10 g. Also, in assay [1], the “Final Body Weight” value turned out to be 431 g and the “Retroperitoneal Fat Weight” value turned out to be 4.10 g. Moreover, the “Adipocyte Cell Volume” value with epididymal adipocytes was determined as 163 p1. In addition, the “Bmax, epididymal adipocyte AII receptor binding” value in the assay on adipocyte AII receptor came out at 24.7 fmole/mg protein.

Consider `CCCCc1nc2ccc(C3(C)CC(C(=O)OCC)=NO3)cc2c(=O)n1Cc1ccc(-c2ccccc2-c2nn[nH]n2)cc1` (stereo not drawn) [5-[2-butyl-3,4-dihydro-4-oxo-3-[[2'-(1H-tetrazol-5-yl)[1,1'-biphenyl]-4-yl]methyl]-6-quinazolinyl]-4,5-dihyrdro-5-methyl-3-isoxazolecarboxylic acid ethyl ester], for which, on AII receptor [2] (setting [4]), the IC50 stood at 0.0357 µM.

On to `CCCc1nc(C)n2[nH]c(=O)nc2c1Cc1ccc(-c2ccccc2-c2nnn[nH]2)cc1` [5-methyl-7-propyl-8-[(2'-(1H-tetrazol-5-yl)biphenyl-4-yl)methyl]-1,2,4-triazolo[1,5-c]pyrimidin-2(3H)-one, reference compound], for which, at AII receptor [2] (setting [4]), the IC50 was found to be 0.00563 µM.

For the molecule `CCCCc1nc2ccc([C@H]3C[C@@H](CO)ON3C)cc2c(=O)n1Cc1ccc(-c2ccccc2-c2nnn[nH]2)cc1` [(3R-cis)-2-butyl-6-[5-(hydroxymethyl)-2-methyl-3-isoxazolidinyl]-3-[[2'-(1H-tetrazol-5-yl)[1,1'-biphenyl-4-yl]methyl]-4(3H)-quinazolinone], on AII receptor [2] (setting [4]), the IC50 is 0.0082 µM.

`CCCCc1nc2ccc([C@@H]3C[C@@H](CO)ON3C)cc2c(=O)n1Cc1ccc(-c2ccccc2-c2nnn[nH]2)cc1` [(3S-trans)-2-butyl-6-[5-(hydroxymethyl)-2-methyl-3-isoxazolidinyl]-3-[[2'-(1H-tetrazol-5-yl)[1,1'-biphenyl]-4-yl]methyl]-4(3H)-quinazolinone] yielded an IC50 on AII receptor [2] (setting [4]) of 0.0186 µM.

As for `Cc1cc(Cn2cnc3c2C[C@@H](C(=O)O)N(C(=O)C(c2ccccc2)c2ccccc2)C3)ccc1N(C)C` [((S)-)-[[4-(di-methylamino)-3-methylphenyl]methyl-5-(diphenylacetyl)-4,5,6,7-tetrahydro-1H-imidazo[4,5-c]-pyridine-6-carboxylic acid, reference compound], the IC50 worked out at 242 µM at AII receptor [3] and 173 µM on AII receptor [2] (Inhibitory Constants (IC50) for displacement of 125I[Sar,Ile]AII binding, Epididymal, rat epididymal fat cell membranes, 1 nM radioligand, 1-4 assays).

With `CCCCc1nc2ccc([C@@H]3C[C@@H]4[C@H](O3)ON3[C@H]4CCC3(C)C)cc2c(=O)n1Cc1ccc(-c2ccccc2-c2nn[nH]n2)cc1` [[2S-(2α,3aα,3bβ,8aα)]-2-butyl-6-(6,6'-dimethyloctahydrofuro[3,2-d]pyrrolo[1,2-d]isoxazol-2-yl)-3-[[2'-(1H-tetrazol-5-yl)[1,1'-biphenyl]-4-yl]methyl]-4(3H)-quinazolinone], the IC50 on AII receptor [2] (read-out: Epididymal IC50 for displacement of 125I[Sar,Ile]AII binding, rat epididymal fat cell membranes (Table 8)) was determined as 0.0141 µM.
